Test results from patent US20070167631A1, “Novel herbicides” (priority 2003, published 2007).

How the values were obtained:
Format in all cases: in vivo
Panicum = assay: Post-emergence herbicidal action (Example B2); conditions: 250 g/ha, after about 18 days, rating scale 10=total damage, 0=no action
Source text: (§1) Monocotyledonous and dicotyledonous test plants are cultivated in a greenhouse in standard soil in plastic pots and, at the 4- to 6-leaf stage, are sprayed with an aqueous suspension of the test compounds of formula I prepared from a 25% wettable powder (Example F3, b) according to WO 97/34485) or with an emulsion of the test compounds of formula I prepared from a 25% emulsifiable concentrate (Example F1, c) according to WO 97/34485), corresponding to concentrations of 125 and 250 g of active ingredient per hectare (500 litres of water per ha). The test plants are then grown on in the greenhouse under optimum conditions. After a test duration of about 18 days, the test is evaluated in accordance with a scale of eleven ratings (10=total damage, 0=no action). Ratings of from 10 to 7 (especially from 10 to 8) indicate very good to good herbicidal action.

Euphorbia = assay: Post-emergence herbicidal action (Example B2); conditions: 250 g/ha, after about 18 days, rating scale 10=total damage, 0=no action
Source text: as §1

Stellaria [1] = assay: Post-emergence herbicidal action (Example B2); conditions: 250 g/ha, after about 18 days, rating scale 10=total damage, 0=no action
Source text: as §1

Amaranthus [2] = assay: Post-emergence herbicidal action (Example B2); conditions: 250 g/ha, after about 18 days, rating scale 10=total damage, 0=no action
Source text: as §1

Xanthium = assay: Post-emergence herbicidal action (Example B2); conditions: 250 g/ha, after about 18 days, rating scale 10=total damage, 0=no action
Source text: as §1

Echinochloa = assay: Post-emergence herbicidal action (Example B2); conditions: 250 g/ha, after about 18 days, rating scale 10=total damage, 0=no action
Source text: as §1

Chenopodium = assay: Post-emergence herbicidal action (Example B2); conditions: 250 g/ha, after about 18 days, rating scale 10=total damage, 0=no action
Source text: as §1

Solanum = assay: Microscreen, post-emergence herbicidal action (Example B3); conditions: 250 g/ha, evaluated after 9 or 13 days, scale of eleven ratings (10=total damage, 0=no action)
Description: (§2) Example B3 Microscreen, Post-Emergence Herbicidal Action Monocotyledonous and dicotyledonous test plants are sown in sterilised standard soil in seed trays each having 96 cells. […] The plants are grown on in the climatic chamber until the test is evaluated after 9 or 13 days. The test is evaluated in accordance with a scale of eleven ratings (10=total damage, 0=no action). Ratings of from 10 to 7 (especially from 10 to 8) indicate very good to good herbicidal action.

Nasturtium = assay: as above; conditions: 250 g/ha, evaluated after 9 or 13 days, scale of eleven ratings (10=total damage, 0=no action)
Description: as §2

Amaranthus [3] = assay: as above; conditions: 250 g/ha, evaluated after 9 or 13 days, scale of eleven ratings (10=total damage, 0=no action)
Description: as §2

Stellaria [4] = assay: as above; conditions: 250 g/ha, evaluated after 9 or 13 days, scale of eleven ratings (10=total damage, 0=no action)
Description: (§3) Example B3 Microscreen, Post-Emergence Herbicidal Action Monocotyledonous and dicotyledonous test plants are sown in sterilised standard soil in seed trays each having 96 cells. After 8 to 9 days' cultivation under controlled conditions in a climatic chamber (cultivation at 17/23° C.; 13 hours' light; 50-60% humidity; after application at 19/24° C.), the plants are treated with an aqueous spray solution of 1000 mg/l of the active ingredient used ([…]; incl. 10% DMSO as solvent). The plants are grown on in the climatic chamber until the test is evaluated after 9 or 13 days. The test is evaluated in accordance with a scale of eleven ratings (10=total damage, 0=no action). Ratings of from 10 to 7 (especially from 10 to 8) indicate very good to good herbicidal action.

Digitaria = assay: as above; conditions: 250 g/ha, evaluated after 9 or 13 days, scale of eleven ratings (10=total damage, 0=no action)
Description: as §3

SMILES | Post-emergence action: Panicum (Panicum) | Post-emergence action: Euphorbia (Euphorbia) | Post-emergence action: Stellaria (Stellaria [1]) | Post-emergence action: Amaranthus (Amaranthus [2]) | Post-emergence action: Xanthium (Xanthium) | Post-emergence action: Echinochloa (Echinochloa) | Post-emergence action: Chenopodium (Chenopodium) | Solanum, herbicidal action rating (Solanum) | Nasturtium, herbicidal action rating (Nasturtium) | Amaranthus, herbicidal action rating (Amaranthus [3]) | Stellaria, herbicidal action rating (Stellaria [4]) | Digitaria, herbicidal action rating (Digitaria)
CC1(C)OC(C)(C)C(O)=C(C(=O)c2ccc(C(F)(F)F)c(N3CCOCC3)n2)C1=O [Compound 3.076] | 7 | 6 | 7 | 7 | 8 | 7 | 9 |  |  |  |  | 
CC1(c2nc(C(=O)C3=C(O)CCCC3=O)ccc2C(F)(F)F)OCCO1 [Compound 1.192] |  |  |  |  |  |  |  | 9 | 10 | 8 | 9 | 7
CCC(=O)N(C)c1nc(C(=O)C2=C(O)CCCC2=O)ccc1C(F)(F)F [Compound 1.090] | 8 |  | 6 | 8 | 8 | 7 | 9 |  |  |  |  | 
O=C1CCC2(CC2)C(O)=C1C(=O)c1ccc(C(F)(F)F)c(N2CCOCC2)n1 [Compound 3.068] | 10 | 9 | 9 | 10 | 9 | 9 | 9 |  |  |  |  | 
CCOc1nc(C(=O)C2=C(O)C(C)(C)C(=O)C(C)(C)C2=O)ccc1C(F)(F)F [Compound 2.095] | 9 | 9 | 5 | 9 | 9 | 9 | 8 |  |  |  |  | 
CC1(C)C(=O)C(C(=O)c2ccc(C(F)(F)F)c(C#N)n2)=C(O)C(C)(C)C1=O [Compound 2.208] | 9 | 8 | 5 | 8 | 8 | 9 | 6 |  |  |  |  | 
O=C1CCCC(O)=C1C(=O)c1ccc(C(F)(F)F)c(-n2ccc(C(F)(F)F)n2)n1 [Compound 1.081] | 10 | 9 | 6 | 10 | 9 | 9 | 9 |  |  |  |  | 
CC1(C)C(=O)C(C(=O)c2ccc(C(F)(F)F)c(-n3ccc(C(F)(F)F)n3)n2)=C(O)C(C)(C)C1=O [Compound 2.080] | 9 | 9 | 7 | 9 | 9 | 9 | 6 |  |  |  |  | 
COCCOc1nc(C(=O)C2=C(O)CCCC2=O)ccc1C(F)(F)F [Compound 1.003] | 8 | 6 | 10 | 9 | 9 | 8 | 10 |  |  |  |  | 
COc1nc(C(=O)C2=C(O)C(C)(C)C(=O)C(C)(C)C2=O)ccc1C(F)(F)F [Compound 2.094] | 8 | 8 | 9 | 3 | 7 | 8 | 9 |  |  |  |  | 
CC1=NOC(c2nc(C(=O)C3=C(O)CCCC3=O)ccc2C(F)(F)F)C1 (stereo not drawn) [Compound 1.203] | 9 | 7 | 7 | 8 | 8 | 8 | 9 |  |  |  |  | 
O=C1CCCC(O)=C1C(=O)c1ccc(C(F)(F)F)c(OC2CCOC2)n1 (stereo not drawn) [Compound 1.021] | 6 | 7 | 7 | 9 | 9 | 6 | 8 |  |  |  |  | 
N#CC1CC(=O)C(C(=O)c2ccc(C(F)(F)F)c(N3CCOCC3)n2)=C(O)C1 (stereo not drawn) [Compound 3.212] | 0 | 7 | 7 | 8 | 8 | 5 | 7 |  |  |  |  | 
COCCOc1nc(C(=O)C2=C(O)C(C)(C)C(=O)C(C)(C)C2=O)ccc1C(F)(F)F [Compound 2.003] | 9 | 9 | 9 | 8 | 8 | 9 | 8 |  |  |  |  | 
CC1(C)CC(C)(C)C(O)=C(C(=O)c2ccc(C(F)(F)F)c(N3CCOCC3)n2)C1=O [Compound 3.075] | 5 | 7 | 8 | 2 | 8 | 7 | 9 |  |  |  |  | 
C=C(OCC)c1nc(C(=O)C2=C(O)C(C)(C)C(=O)C(C)(C)C2=O)ccc1C(F)(F)F [Compound 2.188] | 9 | 7 | 10 | 5 | 8 | 7 | 6 |  |  |  |  | 
C=C(OCC)c1nc(C(=O)C2=C(O)CCCC2=O)ccc1C(F)(F)F [Compound 1.189] |  |  |  |  |  |  |  | 9 | 9 |  | 8 | 7
CC1=NOC(c2nc(C(=O)C3=C(O)C(C)(C)C(=O)C(C)(C)C3=O)ccc2C(F)(F)F)C1 (stereo not drawn) [Compound 2.201] | 9 | 6 | 6 | 9 | 8 | 8 | 8 |  |  |  |  | 
